For this test, the system named is TFEB. Description: TFEB Nuclear Translocation Assay. The format is cell-based. The settings on record: read-out: EC50 of TFEB activation.
Regarding `CC(F)(F)c1ccc(S(=O)(=O)n2nc(N3CCN(c4ncc(F)cn4)CC3C(C)(C)C)c3c(Cl)cccc32)cc1` (centres unmarked) [Compound 108, 3-[2-tert-butyl-4-(5-fluoropyrimidin-2-yl)piperazin-1-yl]-4-chloro-1-[4-(1,1-difluoroethyl)phenyl]sulfonyl-indazole], the EC50 is ≤ 1000 nM.
Regarding `CC(C)S(=O)(=O)c1ccc(S(=O)(=O)n2nc(N3CCC[C@@H]3C(F)(F)F)c3c(Cl)cccc32)cc1` [Compound 109, 4-chloro-1-(4-isopropylsulfonylphenyl)sulfonyl-3-[(2R)-2-(trifluoromethyl)pyrrolidin-1-yl]indazole], the EC50 was ≤ 1000 nM.
In the case of `CC(C)S(=O)(=O)n1ccc(S(=O)(=O)n2nc(N3CCN(c4ncc(F)cn4)CC34CC4)c3c(Cl)cccc32)c1` [Compound 111, 4-chloro-3-[7-(5-fluoropyrimidin-2-yl)-4,7-diazaspiro [2.5]octan-4-yl]-1-(1-isopropylsulfonylpyrrol-3-yl) sulfonyl-indazole] it was ≤ 1000 nM.
In the case of `O=S(=O)(c1ccc(C(F)F)cc1)n1nc(N2CCN(c3ncc(F)cn3)CC2C2CC2)c2c(Cl)cccc21` (centres unmarked) [Compound 112, 4-chloro-3-[2-cyclopropyl-4-(5-fluoropyrimidin-2-yl)piperazin-1-yl]-1-[4-(difluoromethyl)phenyl]sulfonyl-indazole] it was ≤ 1000 nM; in that of `O=S(=O)(c1ccc(C(F)(F)F)cc1)n1nc(N2CCN(c3ncc(F)cn3)CC23CC3)c2c(Cl)cccc21` [Compound 113, 4-chloro-3-[7-(5-fluoropyrimidin-2-yl)-4,7-diazaspiro[2.5]octan-4-yl]-1-[4-(trifluoromethyl)phenyl]sulfonyl-indazole], ≤ 1000 nM.
`O=S(=O)(c1ccc(S(=O)(=O)n2nc(N3CCN(c4ncc(F)cn4)CC34CC4)c3c(Cl)cccc32)cc1)C(F)F` [Compound 114, 4-chloro-1-[4-(difluoromethylsulfonyl)phenyl]sulfonyl-3-[7-(5-fluoropyrimidin-2-yl)-4,7-diazaspiro[2.5]octan-4-yl]indazole]: the EC50 is ≤ 1000 nM.
On to `O=S(=O)(c1ccc(OC(F)F)cc1)n1nc(N2CCN(c3ncc(F)cn3)CC23CC3)c2c(Cl)cccc21` [Compound 115, 4-chloro-1-[4-(difluoromethoxy)phenyl]sulfonyl-3-[7-(5-fluoropyrimidin-2-yl)-4,7-diazaspiro[2.5]octan-4-yl]indazole], for which the EC50 was ≤ 1000 nM.
On to `CC(F)(F)c1ccc(S(=O)(=O)n2nc(N3CCN(c4ncc(F)cn4)CC34CC4)c3c(Cl)cccc32)cc1` [Compound 116, 4-chloro-1-[4-(1,1-difluoroethyl)phenyl]sulfonyl-3-[7-(5-fluoropyrimidin-2-yl)-4,7-diazaspiro[2.5]octan-4-yl]indazole], for which the 50% effective concentration (EC50) is ≤ 1000 nM.
For `O=S(=O)(c1ccc(OC(F)(F)F)cc1)n1nc(N2CCN(c3ncc(F)cn3)CC23CC3)c2c(Cl)cccc21` [Compound 117, 4-chloro-3-[7-(5-fluoropyrimidin-2-yl)-4,7-diazaspiro [2.5]octan-4-yl]-1-[4-(trifluoromethoxy)phenyl]sulfonyl-indazole], the EC50 was ≤ 1000 nM.
Consider `O=S(=O)(c1ccc(SC(F)(F)F)cc1)n1nc(N2CCN(c3ncc(F)cn3)CC23CC3)c2c(Cl)cccc21` [Compound 118, 4-chloro-3-[7-(5-fluoropyrimidin-2-yl)-4,7-diazaspiro[2.5]octan-4-yl]-1-[4-(trifluoromethylsulfanyl)phenyl]sulfonyl-indazole], for which the EC50 is ≤ 1000 nM.
For the compound `CC(F)(F)c1ccc(S(=O)(=O)n2nc(N3CCN(C4COC4)CC34CC4)c3c(Cl)cccc32)cc1` [Compound 119, 4-chloro-1-((4-(1,1-difluoroethyl)phenyl)sulfonyl)-3-(7-(oxetan-3-yl)-4,7-diazaspiro[2.5]octan-4-yl)-1H-indazole], the EC50 is ≤ 1000 nM.
For `CC(F)(F)c1ccc(S(=O)(=O)n2nc(N3CCN(C4COC4)CC3C(F)(F)F)c3c(Cl)cccc32)cc1` (centres unmarked) [Compound 120, 4-chloro-1-((4-(1,1-difluoroethyl)phenyl)sulfonyl)-3-(4-(oxetan-3-yl)-2-(trifluoromethyl)piperazin-1-yl)-1H-indazole], the EC50 was ≤ 1000 nM.
For the compound `CC(F)(F)c1ccc(S(=O)(=O)n2nc(N3CCN(c4ncc(F)cn4)C[C@H]3C(C)(C)F)c3c(Cl)cccc32)cc1` [Compound 121, (S)-4-chloro-1-((4-(1,1-difluoroethyl)phenyl)sulfonyl)-3-(2-(2-fluoropropan-2-yl)-4-(5-fluoropyrimidin-2-yl)piperazin-1-yl)-1H-indazole], the EC50 was ≤ 1000 nM.
Regarding `CC(F)(F)c1ccc(S(=O)(=O)n2nc(N3CCN(c4ncc(F)cc4F)CC34CC4)c3c(Cl)cccc32)cc1` [Compound 123, 4-chloro-1-((4-(1,1-difluoroethyl)phenyl)sulfonyl)-3-(7-(3,5-difluoropyridin-2-yl)-4,7-diazaspiro[2.5]octan-4-yl)-1H-indazole], the EC50 is ≤ 1000 nM.
In the case of `CC(F)(F)c1ccc(S(=O)(=O)n2nc(N3CCN(c4ccc(Cl)cc4F)CC34CC4)c3c(Cl)cccc32)cc1` [Compound 124, 4-chloro-3-(7-(4-chloro-2-fluorophenyl)-4,7-diazaspiro[2.5]octan-4-yl)-1-((4-(1,1-difluoroethyl)phenyl)sulfonyl)-1H-indazole], the EC50 is ≤ 1000 nM.
For the compound `CC(F)(F)c1ccc(S(=O)(=O)n2nc(N3CCN(c4ccc(F)cc4Cl)CC34CC4)c3c(Cl)cccc32)cc1` [Compound 125, 4-chloro-3-(7-(2-chloro-4-fluorophenyl)-4,7-diazaspiro [2.5]octan-4-yl)-1-((4-(1,1-difluoroethyl)phenyl)sulfonyl)-1H-indazole], the EC50 is ≤ 1000 nM.
Next, `CC(F)(F)c1ccc(S(=O)(=O)n2nc(N3CCN(c4ccc(F)cc4F)CC34CC4)c3c(Cl)cccc32)cc1` [Compound 126, 4-chloro-1-((4-(1,1-difluoroethyl)phenyl)sulfonyl)-3-(7-(2,4-difluorophenyl)-4,7-diazaspiro[2.5]octan-4-yl)-1H-indazole]: ≤ 1000 nM; `CC(F)(F)c1ccc(S(=O)(=O)n2nc(N3CCN(C(=O)F)CC34CC4)c3c(Cl)cccc32)cc1` [Compound 127, 4-(4-chloro-1-((4-(1,1-difluoroethyl)phenyl)sulfonyl)-1H-indazol-3-yl)-4,7-diazaspiro [2.5]octane-7-carbonyl fluoride]: ≤ 1000 nM.
In the case of `CC(F)(F)c1ccc(S(=O)(=O)n2nc(N3CCN(C(C)(C)CF)CC34CC4)c3c(Cl)cccc32)cc1` [Compound 128, 4-chloro-1-((4-(1,1-difluoroethyl)phenyl)sulfonyl)-3-(7-(1-fluoro-2-methylpropan-2-yl)-4,7-diazaspiro [2.5]octan-4-yl)-1H-indazole] it was ≤ 1000 nM; in that of `CC(F)(F)C12CC(S(=O)(=O)n3nc(N4CCN(c5ncc(F)cn5)CC45CC5)c4c(Cl)cccc43)(C1)C2` [Compound 129, 4-chloro-1-((3-(1,1-difluoroethyl)bicycle [1.1.1]pentan-1-yl)sulfonyl)-3-(7-(5-fluoropyrimidin-2-yl)-4,7-diazaspiro [2.5]octan-4-yl)-1H-indazole], ≤ 1000 nM; in that of `CC(F)(F)c1ccc(S(=O)(=O)n2nc(N3CCN(C(C)(CF)CF)CC34CC4)c3c(Cl)cccc32)cc1` [Compound 130, 4-chloro-1-[4-(1,1-difluoroethyl)phenyl]sulfonyl-3-[7-[2-fluoro-1-(fluoromethyl)-1-methyl-ethyl]-4,7-diazaspiro [2.5]octan-4-yl]indazole], ≤ 1000 nM.
Consider `O=S(=O)(n1nc(N2CCN(c3ncc(F)cn3)CC23CC3)c2c(Cl)cccc21)C12CC(C(F)(F)F)(C1)C2` [Compound 131, 4-chloro-3-[7-(5-fluoropyrimidin-2-yl)-4,7-diazaspiro [2.5]octan-4-yl]-1-[[3-(trifluoromethyl)-1-bicyclo [1.1.1]pentanyl]sulfonyl]indazole], for which the EC50 is ≥ 10000 nM.
As for `O=S(=O)(n1nc(N2CCN(c3ncc(F)cn3)CC23CC3)c2c(Cl)cccc21)C12CC(F)(C1)C2` [Compound 132, 4-chloro-1-[(3-fluoro-1-bicyclo [1.1.1]pentanyl)sulfonyl]-3-[7-(5-fluoropyrimidin-2-yl)-4,7-diazaspiro [2.5]octan-4-yl]indazole], the EC50 was ≥ 10000 nM.
Turning to `CC(F)(F)c1ccc(S(=O)(=O)n2nc(N3CCN(c4ncc(F)cn4)CC34CC4)c3c(F)cccc32)cc1` [Compound 133, 1-[4-(1,1-difluoroethyl)phenyl]sulfonyl-4-fluoro-3-[7-(5-fluoropyrimidin-2-yl)-4,7-diazaspiro [2.5]octan-4-yl]indazole], the EC50 was ≤ 1000 nM.
As to `CC(F)(F)c1ccc(S(=O)(=O)n2nc(N3CCN(c4ncc(F)cn4)CC34CC4)c3c(O)cccc32)cc1` [Compound 134, 1-[4-(1,1-difluoroethyl)phenyl]sulfonyl-3-[7-(5-fluoropyrimidin-2-yl)-4,7-diazaspiro [2.5]octan-4-yl]indazol-4-ol], the EC50 is ≥ 10000 nM.
In the case of `CC(F)(F)c1ccc(S(=O)(=O)n2nc(N3CCN(c4ncc(F)cn4)CC34CC4)c3c(Cl)cccc32)cn1` [Compound 135, 4-chloro-1-[[6-(1,1-difluoroethyl)-3-pyridyl]sulfonyl]-3-[7-(5-fluoropyrimidin-2-yl)-4,7-diazaspiro [2.5]octan-4-yl]indazole] it was ≤ 1000 nM; in that of `CC(F)(F)c1cnc(-n2nc(N3CCN(c4ncc(F)cn4)CC34CC4)c3c(Cl)cccc32)nc1` [Compound 136, 4-chloro-1-[5-(1,1-difluoroethyl)pyrimidin-2-yl]-3-[7-(5-fluoropyrimidin-2-yl)-4,7-diazaspiro [2.5]octan-4-yl]indazole], ≥ 10000 nM; in that of `CC(F)(F)c1ncc(S(=O)(=O)n2nc(N3CCN(c4ncc(F)cn4)CC34CC4)c3c(Cl)cccc32)cn1` [Compound 137, 4-chloro-1-[2-(1,1-difluoroethyl)pyrimidin-5-yl]sulfonyl-3-[7-(5-fluoropyrimidin-2-yl)-4,7-diazaspiro [2.5]octan-4-yl]indazole], ≤ 1000 nM.
For `CC1COCC(C)N1c1nn(S(=O)(=O)c2ccn(S(=O)(=O)C(C)C)c2)c2cccc(Cl)c12` (centres unmarked) [Compound 138, 4-[4-chloro-1-(1-isopropylsulfonylpyrrol-3-yl)sulfonyl-indazol-3-yl]-3,5-dimethyl-morpholine], the EC50 was ≤ 1000 nM.
